Assays:
[1] = test system: co-culture of keratinocytes and melanocytes; assay: Activity on constitutive melanogenesis (inhibition of melanin synthesis; thiouracil/leucine incorporation ratio); assay type: cell-based; conditions: for Maximum Activity: inhibitory activity on melanin synthesis, ratio of incorporation of thiouracil to leucine, relative to 100% of the control without test compound
Description: (§1) The modulatory effect of the compounds on constitutive melanogenesis was measured according to the method described in FR-A-2,734,825 and also in the article by Schmidt et al., Anal. Biochem., 235(2), 1996, pp. 113-118. This test is performed on a co-culture of keratinocytes and melanocytes.
For the test compounds, the inhibitory activity on melanin synthesis was determined, by estimating the ratio of incorporation of thiouracil to the incorporation of leucine, relative to 100% of the control (the control corresponds to the test performed without test compound).

[2] = test system: co-culture of keratinocytes and melanocytes; assay: Cytotoxicity on a co-culture; assay type: cell-based
Description: as §1

| Structure (SMILES) | Maximum Activity [1] | Cytotoxicity on a co-culture [2] | depigmenting action compared with arbutin and kojic acid ([1]; conclusion in words from the table of Example 25) |
| --- | --- | --- | --- |
| OC[C@H]1O[C@@H](Oc2ccc(O)cc2)[C@H](O)[C@@H](O)[C@@H]1O [Arbutin] | −44% | Non-cytotoxic |  |
| CC1(C(N)=O)CSSC1 [Compound 2, 4-methyl-1,2-dithiolane-4-carboxamide] | −76% | 100 µM | greater depigmenting action than arbutin and kojic acid |
| O=c1cc(CO)occ1O [Kojic acid] | −30% | 100 µM |  |
